Test results taken from paper PMC12015759, “A humanized Gs-coupled DREADD for circuit and behavior modulation” (Frontiers in Cellular Neuroscience, 2025).

Legend:
[1] = system: dopaminergic neurons in the SNc; assay: 6-OHDA lesion, TH staining of striatum and SNc; assay type: in vivo, mouse; settings: bilateral injection into the striatum, 800 nL of 5 mg/mL per side, 1 week
Protocol: (§1) A PD mouse model was generated using 6-OHDA. Desipramine (Sigma) was administrated (25 mg/kg) via intraperitoneal injection 30 min before a 6-OHDA injection. The stereotactic injection procedure was identical to the AAV injection described above. A volume of 800 nL 6-OHDA (5 mg/mL) was injected into each side of striatum (from bregma: AP 0.5 mm, ML ±1.5 mm, DV –3.2 mm) at a rate of 100 nL/min. One week after 6-OHDA lesions were generated, AAV injections were administered, and behavioral tests were conducted 3 weeks after AAV injections.
Animals were deeply anesthetized and perfused with saline and 4% paraformaldehyde perfusion through left ventricle. The mouse brains were extracted, fixed overnight, and then dehydrated with 30% sucrose solution. After being embedded in OCT (Sakura), brain sections were prepared at 40 μm thickness by a cryostat (Leica, CM1950).
Brain slices were blocked and permeabilized with PBS containing 5% bovine serum albumin (BSA) and 0.3% Triton X-100 for 30 min. The slices were then incubated with anti-GFP (Abcam, ab13970) or anti-TH (Abcam, ab76442), diluted to 1:500 in PBS containing 5% BSA at 4°C overnight. The sections were then incubated with diluted Alexa Fluor 488 goat anti-chicken IgG antibody (Thermo Fisher, A-11039) or Alexa Fluor 594 donkey anti-mouse IgG antibody (Thermo Fisher, A32744) at room temperature for 1 h. […]

[2] = biological target: T1, rM3Ds (Rattus norvegicus, UniProt P08483, A177S/A238G/A489L/DEL261-437/DEL441-478/E258S/I253V/I483M/INS256[…]/K178L/K182A/K255R/K484R/K486H/L173F/L482A/M480V/R171S/R176Q/R179M/S481M/T174R/T181R/T257A/Y148C); assay: cAMP assay (CRE-luciferase reporter) in HEK293T cells expressing rM3Ds; assay type: cell-based
T1 construct: host or cells: HEK293T
T1 sequence (P08483 with tags, fused parts or gaps Y148C/R171S/L173F/T174R/R176Q/A177S/K178L/R179M/T181R/K182A/A238G/I253V/K255R/INS256[…]/T257A/E258S/DEL261-437/DEL441-478/M480V/S481M/L482A/I483M/K484R/K486H/A489L): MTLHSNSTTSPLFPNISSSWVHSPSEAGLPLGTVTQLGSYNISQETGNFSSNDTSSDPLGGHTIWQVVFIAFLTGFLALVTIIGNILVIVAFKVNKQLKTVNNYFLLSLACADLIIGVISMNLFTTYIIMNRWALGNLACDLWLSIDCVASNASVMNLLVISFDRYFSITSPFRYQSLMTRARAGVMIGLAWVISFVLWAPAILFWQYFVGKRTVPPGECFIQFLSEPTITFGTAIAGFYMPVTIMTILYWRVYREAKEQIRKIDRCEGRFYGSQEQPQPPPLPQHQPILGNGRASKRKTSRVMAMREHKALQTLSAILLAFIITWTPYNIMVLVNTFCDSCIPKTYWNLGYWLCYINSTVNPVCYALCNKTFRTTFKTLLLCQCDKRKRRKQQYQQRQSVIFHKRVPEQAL

[3] = system: PD mice; assay: Rotarod test in 6-OHDA PD mice with bilateral AAV8R12-G88P7-hM3Ds-2A-EYFP; assay type: in vivo, mouse; settings: CNO treatment
Protocol: (§2) Animals were anesthetized via intraperitoneal injection of pentobarbital sodium (Sigma) and placed into a stereotactic frame (RWD Instruments). An incision was made to expose the skull and locate the site above the SNr (from bregma: AP –3.4 mm, ML 1.3 mm, DV –4.8 mm). A hole in the skull was drilled above the SNr using an electrodrill (RWD Instruments). The AAV8R12-G88P7-hM3Ds-2A-EYFP vector (200 nL volume) was injected using a 10 μL 33-Gauge Hamilton syringe at a rate of 20 nL/min. The syringe was withdrawn 10 min after finishing injection. Behavioral experiments are performed at least 3 weeks after virus injection.
as §1
After 3 days of habituation to the environment and operator, the mice were placed on a suspended rod apparatus (Xinruan) and trained at speeds of 10, 20, 30 and 40 rpm/min for 2 days. […]

[4] = biological target: T2, hM3Ds (Homo sapiens, UniProt P20309, A178S/A239G/A490L/DEL258-409/DEL413-482/I254V/INS485[…]/K179L/K183A/K256R/K487Q/L174F/L483Q/R172S/R177Q/R180L/T175R/T182R/Y149C/Y255F); assay: Ca2+ imaging (GCaMP6s) in hM3Ds-transfected HEK293T cells; assay type: cell-based; set-up: hM3Ds was subcloned into pAAV-CMV-EYFP to replace EYFP; expressed in transfected cells; host or cells: HEK293T; settings: CNO 10 μM, 10 min
T2 sequence (P20309 with tags, fused parts or gaps Y149C/R172S/L174F/T175R/R177Q/A178S/K179L/R180L/T182R/K183A/A239G/I254V/Y255F/K256R/DEL258-409/DEL413-482/L483Q/INS485[…]/K487Q/A490L): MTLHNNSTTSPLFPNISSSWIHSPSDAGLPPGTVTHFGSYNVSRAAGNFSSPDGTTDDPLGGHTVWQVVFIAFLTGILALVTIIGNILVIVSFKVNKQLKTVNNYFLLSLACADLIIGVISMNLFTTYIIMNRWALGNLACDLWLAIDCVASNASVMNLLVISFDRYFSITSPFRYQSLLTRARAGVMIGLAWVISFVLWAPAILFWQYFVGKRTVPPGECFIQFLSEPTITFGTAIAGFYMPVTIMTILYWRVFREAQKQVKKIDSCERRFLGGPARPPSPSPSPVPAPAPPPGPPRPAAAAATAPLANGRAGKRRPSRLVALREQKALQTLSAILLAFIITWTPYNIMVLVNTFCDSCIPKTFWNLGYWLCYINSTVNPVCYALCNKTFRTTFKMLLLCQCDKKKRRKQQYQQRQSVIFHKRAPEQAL
Protocol: As for the Ca^2+ imaging assay, HEK293T cells (ATCC) were seeded in 24-well plate with DMEM containing 10% fetal bovine serum. Upon reaching ~80% confluency, cells were cotransfected with pAAV-CAG-GCaMP6s (0.1 μg), and pAAV-CMV-hM3Ds or pAAV-CMV-hM3Dq (0.1 μg).
48 h after transfection, the medium in each well was replaced with 400 μL CNO (10 μM) solution, or with 400 μL vehicle (medium only). […] Cell fluorescence were imaged under microscopy and quantified using ImageJ.

[5] = biological target: hM3Ds-M3 (D404G) (Homo sapiens, UniProt P20309, A178S/A239G/A490L/D564G/DEL258-409/DEL413-482/I254V/INS485[…]/K179L/K183A/K256R/K487Q/L174F/L483Q/R172S/R177Q/R180L/T175R/T182R/Y149C/Y255F); settings: CNO at 10 μM, compared to hM3Ds
Chain of hM3Ds-M3 (D404G) (P20309 with tags, fused parts or gaps with the stated changes): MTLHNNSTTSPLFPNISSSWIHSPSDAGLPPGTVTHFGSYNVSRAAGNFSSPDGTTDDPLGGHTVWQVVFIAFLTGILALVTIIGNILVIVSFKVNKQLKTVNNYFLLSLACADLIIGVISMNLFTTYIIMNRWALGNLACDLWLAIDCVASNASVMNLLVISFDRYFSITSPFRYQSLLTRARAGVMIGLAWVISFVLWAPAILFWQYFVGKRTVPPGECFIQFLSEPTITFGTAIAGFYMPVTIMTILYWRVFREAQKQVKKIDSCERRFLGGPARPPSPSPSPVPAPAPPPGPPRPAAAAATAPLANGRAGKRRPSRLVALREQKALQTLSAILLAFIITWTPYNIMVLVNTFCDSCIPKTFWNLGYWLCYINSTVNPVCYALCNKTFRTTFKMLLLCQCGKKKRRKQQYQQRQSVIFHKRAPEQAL
Protocol: (§3) As for the cAMP assay, HEK293T cells (ATCC) were seeded in 6-well plate with DMEM containing 10% fetal bovine serum. Upon reaching ~80% confluency, cells were transfected with DREADDs plasmids (30 ng), pCRE-Luc (GeneBank accession: AF053461.1, 600 ng) and pRL-SV40 (GeneBank accession: AF025845.2, 150 ng). The following day, cells were redistributed from 6-well plates to white opaque 96-well plates pre-coated with poly-L-lysine (Solarbio).
(§4) The plates were then placed back in the cell incubator for 6 h. The cAMP level was detected using a Dual Glo Luciferase Reporter Gene Assay Kit (YEASEN) following the manufacturer’s protocol. The data of each well was presented as the ratio of firefly luciferase luminescence to renilla luciferase luminescence.

[6] = biological target: hM3Ds-M2 (Q402R) (Homo sapiens, UniProt P20309, A178S/A239G/A490L/DEL258-409/DEL413-482/I254V/INS485[…]/K179L/K183A/K256R/K487Q/L174F/L483Q/Q562R/R172S/R177Q/R180L/T175R/T182R/Y149C/Y255F); settings: CNO at 10 μM, compared to hM3Ds
Chain of hM3Ds-M2 (Q402R) (P20309 with tags, fused parts or gaps with the stated changes): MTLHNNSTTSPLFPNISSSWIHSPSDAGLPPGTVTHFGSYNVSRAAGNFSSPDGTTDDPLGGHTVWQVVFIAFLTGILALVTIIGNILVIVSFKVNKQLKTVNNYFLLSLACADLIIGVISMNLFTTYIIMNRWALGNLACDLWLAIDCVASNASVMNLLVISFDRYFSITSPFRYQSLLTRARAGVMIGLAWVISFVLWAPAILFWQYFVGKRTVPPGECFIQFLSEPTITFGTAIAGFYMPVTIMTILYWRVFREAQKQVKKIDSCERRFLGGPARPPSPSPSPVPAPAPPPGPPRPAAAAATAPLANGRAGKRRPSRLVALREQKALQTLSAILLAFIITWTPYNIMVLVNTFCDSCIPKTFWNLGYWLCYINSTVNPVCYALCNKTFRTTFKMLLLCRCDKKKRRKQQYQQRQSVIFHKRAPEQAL
Protocol: as §3, §4

[7] = biological target: hM3Ds-M4 (K405R) (Homo sapiens, UniProt P20309, A178S/A239G/A490L/DEL258-409/DEL413-482/I254V/INS485[…]/K179L/K183A/K256R/K487Q/K565R/L174F/L483Q/R172S/R177Q/R180L/T175R/T182R/Y149C/Y255F); settings: CNO at 10 μM, compared to hM3Ds
Chain of hM3Ds-M4 (K405R) (P20309 with tags, fused parts or gaps with the stated changes): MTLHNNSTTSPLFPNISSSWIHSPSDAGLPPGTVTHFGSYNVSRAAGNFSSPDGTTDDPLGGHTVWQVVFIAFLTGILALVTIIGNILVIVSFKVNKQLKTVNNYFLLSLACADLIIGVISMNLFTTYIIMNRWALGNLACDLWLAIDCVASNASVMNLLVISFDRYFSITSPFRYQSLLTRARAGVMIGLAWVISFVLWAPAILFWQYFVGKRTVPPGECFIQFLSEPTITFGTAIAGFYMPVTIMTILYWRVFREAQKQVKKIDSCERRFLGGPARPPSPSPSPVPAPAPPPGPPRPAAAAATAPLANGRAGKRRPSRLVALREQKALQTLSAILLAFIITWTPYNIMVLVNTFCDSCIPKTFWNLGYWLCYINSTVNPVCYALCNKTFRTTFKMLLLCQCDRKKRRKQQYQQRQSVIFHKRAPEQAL
Protocol: as §3, §4

[8] = biological target: hM3Ds-M5 (K406R) (Homo sapiens, UniProt P20309, A178S/A239G/A490L/DEL258-409/DEL413-482/I254V/INS485[…]/K179L/K183A/K256R/K487Q/K566R/L174F/L483Q/R172S/R177Q/R180L/T175R/T182R/Y149C/Y255F); settings: CNO at 10 μM, compared to hM3Ds
Chain of hM3Ds-M5 (K406R) (P20309 with tags, fused parts or gaps with the stated changes): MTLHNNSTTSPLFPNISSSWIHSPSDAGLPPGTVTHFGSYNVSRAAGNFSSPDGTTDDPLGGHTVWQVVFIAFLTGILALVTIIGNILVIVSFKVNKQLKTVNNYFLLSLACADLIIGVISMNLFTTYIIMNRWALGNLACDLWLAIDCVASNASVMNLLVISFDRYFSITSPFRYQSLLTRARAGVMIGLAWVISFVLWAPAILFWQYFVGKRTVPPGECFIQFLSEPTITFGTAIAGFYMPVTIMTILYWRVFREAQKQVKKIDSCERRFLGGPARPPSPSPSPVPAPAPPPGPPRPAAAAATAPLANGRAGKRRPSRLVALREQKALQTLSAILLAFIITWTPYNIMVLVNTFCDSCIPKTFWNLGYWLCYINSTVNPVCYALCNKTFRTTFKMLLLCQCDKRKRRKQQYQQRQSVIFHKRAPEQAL
Protocol: as §3, §4

[9] = biological target: hM3Ds-M6 (K407R) (Homo sapiens, UniProt P20309, A178S/A239G/A490L/DEL258-409/DEL413-482/I254V/INS485[…]/K179L/K183A/K256R/K487Q/K567R/L174F/L483Q/R172S/R177Q/R180L/T175R/T182R/Y149C/Y255F); settings: CNO at 10 μM, compared to hM3Ds
Chain of hM3Ds-M6 (K407R) (P20309 with tags, fused parts or gaps with the stated changes): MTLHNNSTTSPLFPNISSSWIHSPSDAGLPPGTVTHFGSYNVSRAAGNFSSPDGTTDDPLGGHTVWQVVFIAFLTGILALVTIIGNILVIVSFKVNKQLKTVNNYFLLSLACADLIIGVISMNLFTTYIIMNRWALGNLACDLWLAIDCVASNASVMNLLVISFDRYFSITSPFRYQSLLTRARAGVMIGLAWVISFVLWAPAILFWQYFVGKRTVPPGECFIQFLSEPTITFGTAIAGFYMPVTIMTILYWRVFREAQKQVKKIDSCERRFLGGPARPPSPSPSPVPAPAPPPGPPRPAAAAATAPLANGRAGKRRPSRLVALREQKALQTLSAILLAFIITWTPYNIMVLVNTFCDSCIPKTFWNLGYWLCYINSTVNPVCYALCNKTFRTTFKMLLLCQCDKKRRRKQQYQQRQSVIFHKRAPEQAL
Protocol: as §3, §4

[10] = biological target: T3, hM3-ti23-Ds (Homo sapiens, UniProt P20309, A178S/A239G/A490L/D442R/DEL262-438/DEL444-462/DEL467-485/E259S/I254V/INS257[…]/K179L/K183A/K256R/K465M/K487H/L174F/L463M/R172S/R177Q/R180M/T175R/T182R/T258A/Y149C)
T3 sequence (P20309 with tags, fused parts or gaps Y149C/R172S/L174F/T175R/R177Q/A178S/K179L/R180M/T182R/K183A/A239G/I254V/K256R/INS257[…]/T258A/E259S/DEL262-438/D442R/DEL444-462/L463M/K465M/DEL467-485/K487H/A490L): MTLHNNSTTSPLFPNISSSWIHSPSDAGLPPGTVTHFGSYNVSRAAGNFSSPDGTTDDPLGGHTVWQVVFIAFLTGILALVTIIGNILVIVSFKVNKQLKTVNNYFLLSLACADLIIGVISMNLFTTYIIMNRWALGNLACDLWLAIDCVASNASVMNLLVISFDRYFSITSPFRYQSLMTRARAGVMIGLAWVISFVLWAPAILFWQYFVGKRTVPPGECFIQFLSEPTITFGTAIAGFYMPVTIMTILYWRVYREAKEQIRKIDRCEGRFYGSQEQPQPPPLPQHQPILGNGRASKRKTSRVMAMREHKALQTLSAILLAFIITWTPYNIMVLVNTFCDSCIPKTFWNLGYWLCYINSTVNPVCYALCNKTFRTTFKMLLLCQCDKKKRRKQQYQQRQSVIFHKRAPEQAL
Protocol: as §3, §4
(§5) We next examined whether the chemogenetic receptor ligand, CNO, could stimulate hM3-ti23-Ds and hM3Ds and induce up-regulation of cAMP level. We co-transfected HEK293T cells with engineered receptors and the reporter vector, pCRE-Luc, which contains a cAMP response element-driven firefly luciferase (Luc) ([Bokar et al., 1988]); pRL-SV40 encoding renilla luciferase was simultaneously transfected as a transfection efficiency control.

[11] = biological target: T2, hM3Ds
Protocol: as §3, §4, §5

[12] = system: PD mice; assay: Open field test in 6-OHDA PD mice with bilateral AAV8R12-G88P7-hM3Ds-2A-EYFP; assay type: in vivo, mouse; settings: CNO 0.3 mg/kg
Protocol: as §2
as §1, with “One week after 6-OHDA lesions were generated, AAV injections were administered, and behavioral tests were conducted 3 weeks after AAV injections.” left out
Mice were tested in an open field box arena with length, width and height of 50 × 50 × 50 cm. […] The animals were placed into the test box 30 min after injection and video was recorded for 10 min. The number of rotations, distance traveled, and time spent immobile were then quantified using Anymaze software and the video recordings.

[13] = system: mice; assay: Open field test after unilateral AAV8R12-G88P7-hM3Ds-2A-EYFP injection into the SNr; assay type: in vivo, mouse; settings: CNO 0.3 mg/kg intraperitoneal vs saline, unilateral hM3Ds in D1-MSNs
Protocol: as §2
Mice were tested in an open field box arena with length, width and height of 50 × 50 × 50 cm. The animals underwent 3 days of habituation to the environment and experimenter and 1 day of habituation to the test apparatus. On the test day, the animals were injected with saline or CNO (0.3 mg/kg). The animals were placed into the test box 30 min after injection and video was recorded for 10 min. The number of rotations, distance traveled, and time spent immobile were then quantified using Anymaze software and the video recordings.

NCCc1cc(O)c(O)cc1O [6-OHDA, 6-hydroxydopamine]
dopaminergic neurons in the SNc and dopaminergic innervation in the striatum [1]: almost complete loss

CC(=O)OCC[N+](C)(C)C [ACh, acetylcholine chloride]
luciferase activity ([2]; 100 μM of ACh, rM3Ds-transfected cells): modest elevation in luciferase activity

C[N+]1([O-])CCN(C2=Nc3cc(Cl)ccc3Nc3ccccc32)CC1 [CNO, clozapine N-oxide]
EC50 ([2]; CNO on rM3Ds, HEK293T, 6 h, firefly/renilla luciferase ratio): 2.39 ± 0.25 nM
latency to fall (rotarod) [3]: partial recovery of motor skills
calcium rise [4]: did not induce detectable levels of calcium rise
fold change in luciferase activity [5]: reduced luciferase activity compared to hM3Ds
fold change in luciferase activity [6]: reduced luciferase activity compared to hM3Ds
fold change in luciferase activity [7]: reduced luciferase activity compared to hM3Ds
fold change in luciferase activity [8]: reduced luciferase activity compared to hM3Ds
fold change in luciferase activity [9]: reduced luciferase activity compared to hM3Ds
fold change in luciferase activity ([10]; CNO at 10 μM, compared to rM3Ds and hM3Ds): lower fold change
cAMP response ([10]; HEK293T): dose-dependently increased the cAMP response
fold change in luciferase activity ([11]; CNO at 10 μM, hM3Ds, compared to rM3Ds): comparable fold change
EC50 ([11]; CNO on hM3Ds, HEK293T, 6 h, firefly/renilla luciferase ratio): 1.26 ± 0.2 nM
cAMP response ([11]; hM3Ds, HEK293T): dose-dependently increased the cAMP response
mean distance traveled [12]: reversed
time spent immobile [12]: reversed
contralateral rotation [13]: more contralateral rotation
total distance traveled [13]: no difference
